Results reported in PubChem BioAssay AID2060611 (Molecular Pharmacology Branch, DTP, NCI, 2025).

System: 628569-122-R-J1-PDC complex spheroid viability
Assay: Anticancer human tumor 628569-122-R-J1-PDC patient-derived head and neck squamous carcinoma cell line growth inhibition [CLK]
Details: for IC50: curve of first compound; for viability, T/C: stronger effect = lower value
Procedure, shortened: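 Patient-derived tumor cells grown as complex spheroids with HUVEC endothelial cells and mesenchymal stem cells, treated with drug combinations. Concentrations descend in half-log steps from near clinical Cmax, or from 10 microM if Cmax unknown.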

[1] = second compound 0.0316 µM, first compound 0.00316 µM
[2] = second compound 0.0316 µM, first compound 0.01 µM
[3] = second compound 0.0316 µM, first compound 0.0316 µM
[4] = second compound 0.0316 µM, first compound 0.1 µM
[5] = second compound 0.1 µM, first compound 0.00316 µM
[6] = second compound 0.1 µM, first compound 0.01 µM
[7] = second compound 0.1 µM, first compound 0.0316 µM
[8] = second compound 0.1 µM, first compound 0.1 µM
[9] = second compound 0.316 µM, first compound 0.00316 µM
[10] = second compound 0.316 µM, first compound 0.01 µM
[11] = second compound 0.316 µM, first compound 0.0316 µM
[12] = second compound 0.316 µM, first compound 0.1 µM
[13] = second compound 1 µM, first compound 0.00316 µM
[14] = second compound 1 µM, first compound 0.01 µM
[15] = second compound 1 µM, first compound 0.0316 µM
[16] = second compound 1 µM, first compound 0.1 µM
[17] = second compound 3.16 µM, first compound 0.00316 µM
[18] = second compound 3.16 µM, first compound 0.01 µM
[19] = second compound 3.16 µM, first compound 0.0316 µM
[20] = second compound 3.16 µM, first compound 0.1 µM
[21] = second compound 10 µM, first compound 0.00316 µM
[22] = second compound 10 µM, first compound 0.01 µM
[23] = second compound 10 µM, first compound 0.0316 µM
[24] = second compound 10 µM, first compound 0.1 µM
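Also: spheroids exposed to agents for seven days before readout.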
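For viability, T/C in this document: 100% = DMSO vehicle control viability.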

CCc1c2c(nc3ccc(O)cc13)-c1cc3c(c(=O)n1C2)COC(=O)[C@]3(O)CC + CN1CCN(c2cc(C(=O)Nc3cc4cc(-c5cnn(C)c5)ccc4cn3)ccn2)CC1
IC50 (second compound 0.0316 µM): 90.2 nM
IC50 (second compound 0.1 µM): 107 nM
IC50 (second compound 0.316 µM): < 3.16 nM
IC50 (second compound 1 µM): < 3.16 nM
IC50 (second compound 3.16 µM): < 3.16 nM
IC50 (second compound 10 µM): < 3.16 nM
viability, T/C [1]: 61.5%
viability, T/C [2]: 53.1%
viability, T/C [3]: 50.2%
viability, T/C [4]: 52.2%
viability, T/C (second compound 0.0316 µM, first compound 0.316 µM): 35.8%
viability, T/C (second compound 0.0316 µM, first compound 1 µM): 9.26%
viability, T/C [5]: 50.9%
viability, T/C [6]: 49.9%
viability, T/C [7]: 47.9%
viability, T/C [8]: 58.3%
viability, T/C (second compound 0.1 µM, first compound 0.316 µM): 23.7%
viability, T/C (second compound 0.1 µM, first compound 1 µM): 5.24%
viability, T/C [9]: 40.4%
viability, T/C [10]: 36.4%
viability, T/C [11]: 15%
viability, T/C [12]: 9.88%
viability, T/C (second compound 0.316 µM, first compound 0.316 µM): 4.62%
viability, T/C (second compound 0.316 µM, first compound 1 µM): 6.11%
viability, T/C [13]: 5.48%
viability, T/C [14]: 4.65%
viability, T/C [15]: 8.79%
viability, T/C [16]: 7.58%
viability, T/C (second compound 1 µM, first compound 0.316 µM): 5.31%
viability, T/C (second compound 1 µM, first compound 1 µM): 2.58%
viability, T/C [17]: 9.55%
viability, T/C [18]: 6.32%
viability, T/C [19]: 5.67%
viability, T/C [20]: 8.5%
viability, T/C (second compound 3.16 µM, first compound 0.316 µM): 4.73%
viability, T/C (second compound 3.16 µM, first compound 1 µM): 2.6%
viability, T/C [21]: 1.57%
viability, T/C [22]: 2.38%
viability, T/C [23]: 4%
viability, T/C [24]: 4.91%
viability, T/C (second compound 10 µM, first compound 0.316 µM): 3.1%
viability, T/C (second compound 10 µM, first compound 1 µM): 0.67%

Cn1ncnc1[C@H]1c2n[nH]c(=O)c3cc(F)cc(c23)N[C@@H]1c1ccc(F)cc1 + CN1CCN(c2cc(C(=O)Nc3cc4cc(-c5cnn(C)c5)ccc4cn3)ccn2)CC1
IC50 (second compound 0.0316 µM): > 100 nM
IC50 (second compound 0.1 µM): 69 nM
IC50 (second compound 0.316 µM): < 0.316 nM
IC50 (second compound 1 µM): < 0.316 nM
IC50 (second compound 3.16 µM): < 0.316 nM
IC50 (second compound 10 µM): < 0.316 nM
viability, T/C (second compound 0.0316 µM, first compound 0.000316 µM): 91.6%
viability, T/C (second compound 0.0316 µM, first compound 0.001 µM): 98.2%
viability, T/C [1]: 89.9%
viability, T/C [2]: 92.5%
viability, T/C [3]: 82.7%
viability, T/C [4]: 58.4%
viability, T/C (second compound 0.1 µM, first compound 0.000316 µM): 58.3%
viability, T/C (second compound 0.1 µM, first compound 0.001 µM): 68.8%
viability, T/C [5]: 69.9%
viability, T/C [6]: 62.5%
viability, T/C [7]: 53.8%
viability, T/C [8]: 47.5%
viability, T/C (second compound 0.316 µM, first compound 0.000316 µM): 35.3%
viability, T/C (second compound 0.316 µM, first compound 0.001 µM): 31.6%
viability, T/C [9]: 33.2%
viability, T/C [10]: 34.2%
viability, T/C [11]: 33%
viability, T/C [12]: 21.4%
viability, T/C (second compound 1 µM, first compound 0.000316 µM): 12.2%
viability, T/C (second compound 1 µM, first compound 0.001 µM): 4.22%
viability, T/C [13]: 4.14%
viability, T/C [14]: 4.53%
viability, T/C [15]: 6.11%
viability, T/C [16]: 5.95%
viability, T/C (second compound 3.16 µM, first compound 0.000316 µM): 9.51%
viability, T/C (second compound 3.16 µM, first compound 0.001 µM): 3.28%
viability, T/C [17]: 6.67%
viability, T/C [18]: 8.93%
viability, T/C [19]: 9.05%
viability, T/C [20]: 5.6%
viability, T/C (second compound 10 µM, first compound 0.000316 µM): 7.27%
viability, T/C (second compound 10 µM, first compound 0.001 µM): 1.99%
viability, T/C [21]: 2.02%
viability, T/C [22]: 9.25%
viability, T/C [23]: 4.57%
viability, T/C [24]: 0.98%
